Laboratory results: patent US20220125051A1, “PRE-HARVEST DESICCATION METHOD” (SYNGENTA CROP PROTECTION AG, priority 2019, published 2022)
Where two headings read alike, the source gives them in different places.

Experiments:
Experiment in all cases: Post-emergence efficacy, Method A
Assay type in all cases: in vivo
[1] = tested on: Chenopodium album (CHEAL); details: Chenopodium album, post-emergence, 312 h, evaluated after 13 days
In short: (§1)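 Post-emergence spray on 14-day-old glasshouse plants (24/16 °C day/night, 14 h photoperiod, 65% humidity). Test material was taken up in acetone and IF50 emulsifier mix, then diluted with sodium lauryl ether sulphate (0.25% or 1%) plus 1% ammonium sulphate. Damage was rated 13 days later, 100 = total.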

[2] = tested on: Echinochloa crus-galli (ECHCG); details: Echinochloa crus-galli, post-emergence, 312 h, evaluated after 13 days
In short: as §1

Eleusine indica (ELEIN) = details: Eleusine indica, post-emergence, 312 h, evaluated after 13 days
In short: as §1

Lolium perenne (LOLPE) = details: Lolium perenne, post-emergence, 312 h, evaluated after 13 days
In short: as §1

Setaria faberi (SETFA) = details: Setaria faberi, post-emergence, 312 h, evaluated after 13 days
In short: as §1

[3] = tested on: Ipomoea hederacea (IPOHE); details: Ipomoea hederacea, post-emergence, 312 h, evaluated after 13 days
In short: as §1

[4] = tested on: Digitaria sanguinalis (DIGSA); details: Digitaria sanguinalis, post-emergence, 312 h, evaluated after 13 days
In short: as §1

[5] = tested on: Amaranthus palmeri (AMAPA); details: Amaranthus palmeri, post-emergence, 312 h, evaluated after 13 days
In short: as §1

[6] = tested on: Euphorbia heterophylla (EPHHL); details: Euphorbia heterophylla, post-emergence, 312 h, evaluated after 13 days
In short: as §1

[7] = Application rate 500 g/Ha, 100=total damage to plant, 0=no damage to plant, read-out: Control of weed species after post-emergence application, CHEAL
[8] = Application rate 500 g/Ha, 100=total damage to plant, 0=no damage to plant, read-out: Control of weed species after post-emergence application, ECHCG
[9] = Application rate 500 g/Ha, 100=total damage to plant, 0=no damage to plant, read-out: Control of weed species after post-emergence application, ELEIN
[10] = Application rate 500 g/Ha, 100=total damage to plant, 0=no damage to plant, read-out: Control of weed species after post-emergence application, LOLPE
[11] = Application rate 500 g/Ha, 100=total damage to plant, 0=no damage to plant, read-out: Control of weed species after post-emergence application, SETFA
[12] = Application rate 500 g/Ha, 100=total damage to plant, 0=no damage to plant, read-out: Control of weed species after post-emergence application, IPOHE
[13] = Application rate 500 g/Ha, 100=total damage to plant, 0=no damage to plant, read-out: Control of weed species after post-emergence application, DIGSA
[14] = Application rate 500 g/Ha, 100=total damage to plant, 0=no damage to plant, read-out: Control of weed species after post-emergence application, AMAPA
[15] = Application rate 500 g/Ha, 100=total damage to plant, 0=no damage to plant, read-out: Control of weed species after post-emergence application, EPHHL
[16] = Application Rate 500 g/Ha, Method A, read-out: Control of weed species after post-emergence application, CHEAL (100=total damage to plant; 0=no damage to plant)
[17] = Application Rate 500 g/Ha, Method A, read-out: Control of weed species after post-emergence application, ECHCG (100=total damage to plant; 0=no damage to plant)
[18] = Application Rate 500 g/Ha, Method A, read-out: Control of weed species after post-emergence application, ELEIN (100=total damage to plant; 0=no damage to plant)
[19] = Application Rate 500 g/Ha, Method A, read-out: Control of weed species after post-emergence application, LOLPE (100=total damage to plant; 0=no damage to plant)
[20] = Application Rate 500 g/Ha, Method A, read-out: Control of weed species after post-emergence application, SETFA (100=total damage to plant; 0=no damage to plant)
[21] = Application Rate 500 g/Ha, Method A, read-out: Control of weed species after post-emergence application, IPOHE (100=total damage to plant; 0=no damage to plant)
[22] = Application Rate 500 g/Ha, Method A, read-out: Control of weed species after post-emergence application, DIGSA (100=total damage to plant; 0=no damage to plant)
[23] = Application Rate 500 g/Ha, Method A, read-out: Control of weed species after post-emergence application, AMAPA (100=total damage to plant; 0=no damage to plant)
[24] = Application Rate 500 g/Ha, Method A, read-out: Control of weed species after post-emergence application, EPHHL (100=total damage to plant; 0=no damage to plant)

Structure (SMILES) | pest or weed control at 500 g/ha [1, 7] | pest or weed control at 500 g/ha [2, 8] | pest or weed control at 500 g/ha (Eleusine indica (ELEIN); [9]) | pest or weed control at 500 g/ha (Lolium perenne (LOLPE); [10]) | pest or weed control at 500 g/ha (Setaria faberi (SETFA); [11]) | pest or weed control at 500 g/ha [3, 12] | pest or weed control at 500 g/ha [4, 13] | pest or weed control at 500 g/ha [5, 14] | pest or weed control at 500 g/ha [6, 15] | pest or weed control at 500 g/ha [1, 16] | pest or weed control at 500 g/ha [2, 17] | pest or weed control at 500 g/ha (Eleusine indica (ELEIN); [18]) | pest or weed control at 500 g/ha (Lolium perenne (LOLPE); [19]) | pest or weed control at 500 g/ha (Setaria faberi (SETFA); [20]) | pest or weed control at 500 g/ha [3, 21] | pest or weed control at 500 g/ha [4, 22] | pest or weed control at 500 g/ha [5, 23] | pest or weed control at 500 g/ha [6, 24]
O=c1cc(-c2cc[n+](CCCS(=O)(=O)[O-])nc2)nc[nH]1 [Compound A116] | 80% | 20% | 20% | 10% | 30% | 10% | 30% | 100% | 50% |  |  |  |  |  |  |  |  | 
Cc1cnc(-c2cc[n+](CCC(=O)O)nc2)c(C)c1 [Compound A177] |  |  |  |  |  |  |  |  |  | 50% | 0% | 10% | 0% | 0% | 20% | 10% | 60% | 30%
CN(C)c1cnc(-c2cc[n+](CCC(=O)[O-])nc2)nc1 [Compound A42] | 0% | 30% | 20% | 0% | 50% | 20% | 50% | 50% | 30% |  |  |  |  |  |  |  |  | 
COc1nc(-c2cc[n+](CCC(=O)[O-])nc2)ncc1C [Compound A106] | 20% | 50% | 80% | 60% | 60% | 10% | 60% | 80% | 20% |  |  |  |  |  |  |  |  | 
O=S(=O)([O-])CCC[n+]1ccc(-c2cnc(Cl)cn2)cn1 [Compound A79] | 30% | 10% | 20% | 0% | 10% | 0% | 20% | 10% | 10% |  |  |  |  |  |  |  |  | 
Cc1cc(Cl)cnc1-c1cc[n+](CCS(=O)(=O)[O-])nc1 [Compound A103] | 50% | 30% | 30% | 10% | 10% | 30% | 20% | 0% | 50% |  |  |  |  |  |  |  |  | 
CC(C)(C[n+]1ccc(-c2ccncn2)cn1)C(=O)O [Compound A167] |  |  |  |  |  |  |  |  |  | 70% | 60% | 80% | 40% | 40% | 100% | 50% | 20% | 90%
CCOP(=O)(CCC[n+]1ccc(-c2ncccn2)cn1)OCC [Compound A204] |  |  |  |  |  |  |  |  |  | 20% | 0% | 0% | 0% | 0% | 0% | 0% | 10% | 0%
CN(C)C(=O)c1cnc(-c2cc[n+](CCC(=O)[O-])nc2)nc1 [Compound A92] | 90% | 80% | 90% | 50% | 90% | 100% | 60% | 90% | 70% |  |  |  |  |  |  |  |  | 
CS(=O)(=O)NC(=O)CC[n+]1ccc(-c2ncccn2)cn1 [Compound A89] | 40% | 60% | 40% | 40% | 70% | 70% | 50% | 100% | 100% |  |  |  |  |  |  |  |  | 
Cc1c[n+](CCS(=O)(=O)[O-])ncc1-c1ncccn1 [Compound A87] | 30% | 70% | 60% | 70% | 70% | 40% | 70% | 50% | 50% |  |  |  |  |  |  |  |  | 
Cc1cnc(-c2cc[n+](CCC(=O)O)nc2)c(F)c1 [Compound A178] |  |  |  |  |  |  |  |  |  | 70% | 10% | 0% | 0% | 10% | 20% | 10% | 90% | 40%
O=S(=O)([O-])CC[n+]1ccc(-c2ncc(C(F)(F)F)cn2)cn1 [Compound A24] | 70% | 60% | 40% | 60% | 70% | 70% | 40% | 90% | 80% |  |  |  |  |  |  |  |  | 
Cc1cc(=O)[nH]c(-c2cc[n+](CCS(=O)(=O)[O-])nc2)n1 [Compound A95] | 40% | 50% | 30% | 20% | 50% | 30% | 40% | 30% | 40% |  |  |  |  |  |  |  |  | 
CO[N-]C(=O)CC[n+]1ccc(-c2ncccn2)cn1 [Compound A218] |  |  |  |  |  |  |  |  |  | 80% | 60% | 60% | 70% | 60% | 70% | 70% | 100% | 80%
CNC(=O)c1cnc(-c2cc[n+](CCC(=O)[O-])nc2)nc1 [Compound A93] | 80% | 80% | 100% | 80% | 100% | 20% | 100% | 90% | 40% |  |  |  |  |  |  |  |  | 
